Measured values from paper PMC7414866, “The Rnf complex is a Na^+ coupled respiratory enzyme in a fermenting bacterium, Thermotoga maritima” (Communications Biology, 2020).

Molecular target: T1, Na+-F1FO ATP synthase (Thermotoga maritima, UniProt O50550+Q9X1U7+Q9X1V0)
T1 construct: gene atpE; native F1FO complex purified with DDM, no tags; 550 kDa on native PAGE; co-purified with Rnf; with ATP synthase gamma chain; ATP synthase subunit delta; ATP synthase epsilon chain; ATP synthase subunit a; ATP synthase subunit b
Assay: ATP hydrolysis (phosphate release) after preincubation
Assay type: biochemical
Settings: covalent; preincubation without Na+ 30 min room temperature, then 5 min 80 °C; 3 mM K2-ATP, pH 7.4; competes with Na+

Compound: C(=NC1CCCCC1)=NC1CCCCC1 [DCCD]
- inhibition: DCCD inhibited ATP hydrolysis but inhibition was relieved by addition of Na^+
